Values quoted from earlier work in PMC6906348 (Therapeutic Advances in Medical Oncology, 2019).
Where two headings read alike, the source gives them in different places.

Tests used:
[1] = test system: patients with unresectable advanced HCC; conditions: cited from earlier work
[2] = test system: patients with unresectable advanced HCC; conditions: cited from earlier work; remark: listed apart in the source
[3] = test system: patients progressing on or after sorafenib treatment (HCC); conditions: cited from earlier work
[4] = test system: Asian patients with advanced HCC; conditions: cited from earlier work
[5] = test system: patients with advanced HCC; conditions: cited from earlier work
[6] = test system: patients with MET-high HCC; conditions: MET-high HCC defined by IHC ⩾2+ in ⩾50% of tumor cells; cited from earlier work

In the case of CNC(=O)c1cc(Oc2ccc(NC(=O)Nc3ccc(Cl)c(C(F)(F)F)c3)cc2)ccn1 [sorafenib], the “hazard ratio (HR), overall survival” value ([1]; sorafenib group versus placebo) is given as 0.69, the overall response rate ([1]; versus 1% for placebo) is given as 2% and the “median time to progression (TTP)” value ([1]; versus 2.8 months for placebo) is given as 5.5 months. For the same compound, the median overall survival ([1]; versus 7.9 months for placebo) was 10.7 months, the disease control rate ([1]; versus 32% for placebo) was 43% and the “HR, overall survival” value ([2]; sorafenib group versus placebo) was 0.68. For the same compound, the median overall survival ([2]; versus 4.2 months for placebo) was 6.5 months.
In the case of CNC(=O)c1cc(Oc2ccc(NC(=O)Nc3ccc(Cl)c(C(F)(F)F)c3)c(F)c2)ccn1 [regorafenib], the overall response rate ([3]; versus 4% in the placebo arm) is given as 11% and the overall survival ([3]; versus 7.8 months for placebo) is given as 10.6 months.
For CN1CCC(COc2cnc(-c3cccc(Cn4nc(-c5cccc(C#N)c5)ccc4=O)c3)nc2)CC1 [tepotinib], the “MET-positive patients with partial responses” value ([4]; MET-positive defined as ⩾50% tumor IHC 2+/3+) is listed as 2/7, the “patients with partial responses” value ([4]; unselected patients, 2/27) is listed as 7.4% and the disease control rate ([4]; unselected patients) is listed as 37%.
In the case of nivolumab, the overall response rate ([5]; all patients) is listed as 20% and the overall response rate ([5]; sorafenib-treated patients) is listed as 14%.
In the case of O=C1NC(=O)[C@@H](c2cn3c4c(cccc24)CCC3)[C@@H]1c1c[nH]c2ccccc12 [tivantinib], the study outcome [6] is listed as “negative”.
